{"source": "patent US20210062263A1", "about": "“A CLINICAL […]” (priority 2016, published 2021)", "key": {"activin A": {"test_system": "activin A", "assay": "Cutaneous activin A levels (ELISA) after wounding", "format": "in vivo, mice", "details": "testosterone replacement, day 3 post-wounding", "from_the_text": "(§1) Under anesthesia, the dorsal flanks of each 9 weeks old mouse (n=6/group) were carefully shaved and cleansed with 70% v/v ethanol. To create wounds, full-thickness, parasagittal linear incisions (1 cm long) were made through the skin and underlying the panniculus carnosus muscle on each flank and each wound was closed using two 5/0 silk sutures placed 3 mm from each end of the wound. Post operatively, all animals received analgesia to minimize pain, were allowed to recover on a heated pad and then housed in groups of four animals per cage. Incisions were examined and assessed on days 3, 5, 7 and post-wounding.\nFollowing exsanguination, anesthetized animals were killed by cervical dislocation. Full-thickness specimens of the skin wound, consisting of the entire wound scar surrounded by a border of about 3-mm, were excized and bisected. Half of each sample was frozen at −80° C. and the other half was fixed in 4% v/v paraformaldehyde (Sigma-Aldrich, NSW, Australia) and processed for histology. Unwounded skin was obtained from the dorsum of the trunk near the tail of each animal to determine protein levels. […]\nActivin A levels were measured in serum and skin using a specific ELISA and human recombinant activin A as a standard, according to manufacturer's instructions (Oxford Bioinnovations, Cherwell, Oxfordshire, UK) [Knight et al. (1996) J Endocrinol 148(2):267-279]. […]"}, "follistatin": {"test_system": "follistatin", "assay": "Serum follistatin levels (RIA) in wounded male mice", "format": "in vivo", "experimental": "(§2) Implants were prepared by cutting medical grade Silastic (polydimethylsiloxane) tubing (1.5 mm inner diameter, 2.3 mm outer diameter, Aunet Pty Ltd, WA, Australia) to the desired length (1 cm long) and sealing one end with Multi-Purpose Sealant (Dow Corning RTV Sealant). After 24 hours each tube was packed with either crystalline testosterone (Sigma #T-1500) or left empty (vehicle implant). The open end was then sealed and implants were allowed to dry for at least 24 hours prior to surgical implantation. The implant size was considered to be the length of tubing containing testosterone. Prior to subcutaneous insertion, implants were sterilized in absolute ethanol for 10 minutes which also removed any androgen adhering to its external surface. Each testosterone or vehicle implant was inserted subcutaneously via a 5-mm nape incision in intact and castrated male mice three weeks before the wound healing experiments and the incision site was closed with 5/0 sutures.\nas §1\n(§3) Blood samples were collected between 10:00 and 10:30 am by cardiac puncture at different time points (0d, 3d, 5d, 7d or 14d) according to the experimental protocol. The samples were allowed to coagulate for 30 minutes then centrifuged at 10,000 g for 10 minutes to collect serum which was stored at −20° C. until assayed.\nSerum and skin follistatin levels were measured by RIA using human recombinant follistatin 288 as standard and as tracer following labeling with I^125 (O'Conner et al. (1999) Hum Reprod 14(3):827-832). The assay sensitivity for serum follistatin was 1.52 ng/ml, and the intra-assay variation was 5.4-5.7%."}, "[1]": {"assay": "Serum testosterone levels (RIA) in wounded male mice with testosterone implants", "format": "in vivo", "details": "for Serum Testosterone: Castrated + T males", "experimental": "Six to nine week-old male Balb/cJASMU mice obtained from the Monash University Animal Services, Monash University, Clayton, Victoria, Australia, were housed prior to and during experiments under the following conditions: temperature range 21° C. to 24° C.; light cycle 12 hours light: 12 hours dark. All mice had access to food and water ad libitum.\n(§4) Six week-old male mice were castrated under anesthesia three weeks prior to the studies on wound healing. The testes were gently pushed through the inguinal canal into the abdominal cavity and exposed through a small (0.5 cm) ventral midline abdominal incision. Each testis was gently dissected from its epididymis and removed after ligation of the testicular vasculature. All incisions were closed using two interrupted 5/0 silk sutures (Johnson & Johnson Medical, NSW, Australia).\nas §2, §1, §3\nSerum testosterone levels were measured using a direct radioimmunoassay (RIA) testosterone kit (IM1119—Immunotech, Marseilles, France) according to the manufacturer's instructions, using I^125-labeled testosterone as a radioactive tracer. The antibody used in the immunoassay is highly specific for testosterone with extremely low cross-reactivity (<0.75%) for related molecules such as 5a-dihydrotestosterone or […]. The assay sensitivity for serum testosterone was 15.63 pg/ml and the intra-assay variation was 7.9%. All samples from one experiment were measured in the same assay."}, "[2]": {"assay": "Reproductive organ weights (seminal vesicle, epididymis)", "format": "in vivo, mice", "details": "castrated males, testosterone replacement", "from_the_text": "as §4\nas §2, with “Each testosterone or vehicle implant was inserted subcutaneously via a 5-mm nape incision in intact and castrated male mice three weeks before the wound healing experiments and the incision site was closed with 5/0 sutures.” left out"}, "IL-6": {"test_system": "IL-6", "assay": "Cutaneous IL-6 levels (ELISA) after wounding", "format": "in vivo, mice", "experimental": "Frozen samples of wounded and unwounded skin were homogenized (Janke & Kunkel Ultraturrax T25 homogenizer, IKA Labortechnik, Staufen, Germany) in 1% v/v protease inhibitor (Calbiochem, San Diego, Calif.) and the homogenates were centrifuged at 4° C. to remove debris prior to assay.\nCutaneous levels of IL-6 and TNF-α were measured in skin samples using ELISAs according to the manufacturer's instructions (R&D Systems Inc, MN, USA). The sensitivity of the IL-6 ELISA was 5.97 pg/ml; the intra-assay variation was of 3.4% and the inter-assay variation was 4.1%. Mouse recombinant was used as a standard for the TNF-α assay; the sensitivity of the ELISA was 9.04 pg/ml; the intra-assay variation was of 12.8% and the inter-assay variation was 12.7%. The concentrations are expressed per mg of tissue (wet weight)."}, "dorsal skin wound": {"test_system": "dorsal skin wound", "assay": "Macroscopic evaluation of dorsal skin wounds", "format": "in vivo, mice", "experimental": "as §2\nUnder anesthesia, the dorsal flanks of each 9 weeks old mouse (n=6/group) were carefully shaved and cleansed with 70% v/v ethanol. To create wounds, full-thickness, parasagittal linear incisions (1 cm long) were made through the skin and underlying the panniculus carnosus muscle on each flank and each wound was closed using two 5/0 silk sutures placed 3 mm from each end of the wound. […] Incisions were examined and assessed on days 3, 5, 7 and post-wounding.\nDigital images of each dorsal skin wound were obtained with a standardized focal distance, aperture and exposure time using a Nikon D5000 camera (Nikon, Tokyo, Japan) immediately after the initial incision and at 3, 5, 7 and 14 days post-wounding. Wound areas were measured within the wound margins and the pixel areas were calculated using Adobe Photoshop CS5 (version 12.0, Adobe Systems Inc). The area of erythema was measured in all groups at 3 days and 5 days post-wounding and the area of the wound was measured in all groups at all time-points."}}, "data": [{"molecule": "C[C@]12CC[C@H]3[C@@H](CCC4=CC(=O)CC[C@@]43C)[C@@H]1CC[C@@H]2O", "note": "[testosterone]", "values": [{"measurement": "increase in cutaneous levels of activin A", "setting": "activin A; castrated males", "value": 17, "unit": "fold"}, {"measurement": "cutaneous levels of activin A relative to castrated males", "setting": "activin A", "value": "twice"}, {"measurement": "Serum Follistatin", "setting": "follistatin; Castrated + T males, 0 d", "value": "4.3 ± 0.5", "unit": "ng/mL"}, {"measurement": "Serum Follistatin", "setting": "follistatin; Castrated + T males, 3 d", "value": "4.1 ± 0.3", "unit": "ng/mL"}, {"measurement": "Serum Follistatin", "setting": "follistatin; Castrated + T males, 5 d", "value": "3.9 ± 0.2", "unit": "ng/mL"}, {"measurement": "Serum Follistatin", "setting": "follistatin; Castrated + T males, 7 d", "value": "4.5 ± 0.3", "unit": "ng/mL"}, {"measurement": "Serum Follistatin", "setting": "follistatin; Castrated + T males, 14 d", "value": "4.5 ± 0.5", "unit": "ng/mL"}, {"measurement": "Serum Follistatin", "setting": "follistatin; Intact + T males, 0 d", "value": "3.6 ± 0.03", "unit": "ng/mL"}, {"measurement": "Serum Follistatin", "setting": "follistatin; Intact + T males, 3 d", "value": "3.8 ± 0.3", "unit": "ng/mL"}, {"measurement": "Serum Follistatin", "setting": "follistatin; Intact + T males, 5 d", "value": "3.8 ± 0.1", "unit": "ng/mL"}, {"measurement": "Serum Follistatin", "setting": "follistatin; Intact + T males, 7 d", "value": "3.8 ± 0.4", "unit": "ng/mL"}, {"measurement": "Serum Follistatin", "setting": "follistatin; Intact + T males, 14 d", "value": "3.6 ± 0.2", "unit": "ng/mL"}, {"measurement": "Serum Testosterone", "setting": "[1]; 0 d", "value": "5.7 ± 0.8", "unit": "ng/mL"}, {"measurement": "Serum Testosterone", "setting": "[1]; 3 d", "value": "5.4 ± 0.5", "unit": "ng/mL"}, {"measurement": "Serum Testosterone", "setting": "[1]; 5 d", "value": "5.9 ± 0.4", "unit": "ng/mL"}, {"measurement": "Serum Testosterone", "setting": "[1]; 7 d", "value": "5.2 ± 0.5", "unit": "ng/mL"}, {"measurement": "Serum Testosterone", "setting": "[1]; 14 d", "value": "4.5 ± 0.1", "unit": "ng/mL"}, {"measurement": "serum testosterone levels (in words)", "setting": "[1]; castrated males, testosterone replacement", "value": "back to control levels"}, {"measurement": "concentration at 0 d", "setting": "[1]; male, Balb/cJASMU, mouse, serum, subcutaneous, 1 cm Silastic implant packed with crystalline testosterone, Intact + T males, 0 d", "value": "5.3 ± 0.4", "unit": "ng/mL"}, {"measurement": "concentration at 3 d", "setting": "[1]; male, Balb/cJASMU, mouse, serum, subcutaneous, 1 cm Silastic implant packed with crystalline testosterone, Intact + T males, 3 d", "value": "5.9 ± 0.4", "unit": "ng/mL"}, {"measurement": "concentration at 5 d", "setting": "[1]; male, Balb/cJASMU, mouse, serum, subcutaneous, 1 cm Silastic implant packed with crystalline testosterone, Intact + T males, 5 d", "value": "7.8 ± 0.9", "unit": "ng/mL"}, {"measurement": "concentration at 7 d", "setting": "[1]; male, Balb/cJASMU, mouse, serum, subcutaneous, 1 cm Silastic implant packed with crystalline testosterone, Intact + T males, 7 d", "value": "6.7 ± 0.4", "unit": "ng/mL"}, {"measurement": "concentration at 14 d", "setting": "[1]; male, Balb/cJASMU, mouse, serum, subcutaneous, 1 cm Silastic implant packed with crystalline testosterone, Intact + T males, 14 d", "value": "6.3 ± 0.3", "unit": "ng/mL"}, {"measurement": "size and weight of the epididymis", "setting": "[2]", "value": "0.05±0.02"}, {"measurement": "size and weight of the seminal vesicle", "setting": "[2]", "value": "0.42±0.02"}, {"measurement": "cutaneous IL-6 relative to castrated group", "setting": "IL-6; castrated males, testosterone replacement, day 3 post-wounding", "value": "twice"}, {"measurement": "cutaneous IL-6 relative to intact male group", "setting": "IL-6; intact males treated with testosterone, day 3 post-wounding", "value": "almost twice"}, {"measurement": "basal IL-6 levels in skin", "setting": "IL-6; intact males treated with testosterone, unwounded skin", "value": "increased basal IL-6 levels"}, {"measurement": "wound area", "setting": "dorsal skin wound; castrated animals treated with testosterone vs vehicle, days 3 and 5 post-wounding", "value": "increased wound area"}, {"measurement": "scabs on wound surface", "setting": "dorsal skin wound; castrated males, testosterone replaced", "value": "scabs were observed at both days 3 and 5"}, {"measurement": "area of erythema", "setting": "dorsal skin wound; castrated+T males, day 3 post-wounding", "value": "0.42±0.03", "unit": "cm2"}]}]}
